Data from the NIST ThermoML archive (doi:10.1016/j.fluid.2012.08.016).
± gives the expanded uncertainty stated by the source.

Assay: xn = mol fraction of the nth substance listed
Details: Liquid, Vibrating tube method, x2 = 0.667

C[N+](C)(C)CCO.[Cl-] [choline chloride] + OCC(O)CO
mass density [kg/m3]
Details	298.15 K	303.15 K	308.15 K	313.15 K	318.15 K	323.15 K
100 kPa	1192.1 ± 2.6	1189.2 ± 2.6	1186.2 ± 2.6	1183.4 ± 2.6	1180.5 ± 2.6	1177.7 ± 2.6
5000 kPa	1193.6 ± 2.7	1190.7 ± 2.7	1187.7 ± 2.6	1184.9 ± 2.6	1182 ± 2.6	1179.2 ± 2.6
10000 kPa	1195 ± 2.7	1192.1 ± 2.7	1189.2 ± 2.7	1186.3 ± 2.7	1183.5 ± 2.7	1180.6 ± 2.6
15000 kPa	1196.3 ± 2.7	1193.5 ± 2.7	1190.6 ± 2.7	1187.7 ± 2.7	1184.9 ± 2.7	1182.1 ± 2.7
20000 kPa	1197.7 ± 2.7	1194.8 ± 2.7	1192 ± 2.7	1189.1 ± 2.7	1186.3 ± 2.7	1183.5 ± 2.7
25000 kPa	1199.1 ± 2.7	1196.2 ± 2.7	1193.3 ± 2.7	1190.5 ± 2.7	1187.7 ± 2.7	1184.9 ± 2.7
30000 kPa	1200.4 ± 2.8	1197.6 ± 2.8	1194.7 ± 2.7	1191.9 ± 2.7	1189.1 ± 2.7	1186.3 ± 2.7
35000 kPa	1201.7 ± 2.8	1198.9 ± 2.8	1196 ± 2.8	1193.3 ± 2.8	1190.4 ± 2.8	1187.7 ± 2.7
40000 kPa	1203 ± 2.8	1200.2 ± 2.8	1197.4 ± 2.8	1194.6 ± 2.8	1191.8 ± 2.8	1189.1 ± 2.8
45000 kPa	1204.3 ± 2.8	1201.5 ± 2.8	1198.7 ± 2.8	1195.9 ± 2.8	1193.1 ± 2.8	1190.4 ± 2.8
50000 kPa	1205.6 ± 2.9	1202.8 ± 2.8	1200 ± 2.8	1197.2 ± 2.8	1194.4 ± 2.8	1191.7 ± 2.8
